In patent publication US20020062088A1, “System and method for statistical analysis of QT interval as a function of changes in RR interval” (priority 2000, published 2002):
Like-named read-outs stand apart in the source and are kept apart here.

What was measured:
conscious mongrel dog = settings: in vivo
Text: A system for recording electrocardiogram data in accordance with the present invention is broadly shown in FIG. 6 as reference numeral 100. […] The vehicle or test compound may be administered in various ways, including but not limited to orally, intravenously, or subcutaneous.
Heart rate (RR interval) and Lead II ECG data are collected continuously on a beat-to-beat basis at a sampling rate of 1000 Hz to allow for millisecond (ms) resolution. Using the sampled data, the QT interval and preceding RR interval are measured on individual cardiac cycles using commercially available data acquisition and analysis software. The software package used in support of the data presented here was from Gould Inc. (Po-Ne-Mah) subsidiary. This software permits visual validation of the determination of end points used in the calculation of the ECG time intervals. The collection of data is not limited to any particular method. For example, ECG time intervals can be measured using a ECG strip chart recorder. Thus, both manual and electrical data collection is possible with the present invention.
The various treatments with vehicle or compounds are studied in a randomized fashion.
Approximately 250 to 300 consecutive cardiac cycles are analyzed for a pre-dose period and during steady-state compound exposure. This encompasses between three to five minutes of continuous data for each data collection period. […] An asymptotic decaying exponential growth curve fit is used to describe the relationship between QT and RR interval:
QT=A−B*exp(−C*RR/1000) (1)
Equation (1) is used to fit the QT measurements to the preceding RR interval for each separate data set of consecutive cardiac cycles. The data from each sample period for each vehicle or compound dose is fit to the equation using a least squares nonlinear regression method such as, but not limited to, Quasi Gauss-Newton.
The upper 95% confidence limit for the difference of the curves is determined for each of the dose-to-pre-dose comparisons. If the dose curve crosses the 95% limit, the QT and RR values and the direction of crossing is noted.
The analysis of the compound versus vehicle effect on QT is also accomplished by comparisons of the number of prolonged points exceeding the 95% confidence interval of their respective pre-dose curves. The pre-dose curve value represents the least squares estimate of QT at that value of RR. The 95% limits are then used to compare the overall effect of the treatment (compound or vehicle) to that of the pre-dose response. The confidence limits of the two curves are combined (pooled) to determine the standard error of the difference between the pre-dose and post-dose curves. […] The extent of the confidence and prediction limits depends on the overall variability of the data and the values of the coefficients.
The number of pre-dose data that exceed the upper 95% prediction limit (referred to herein as “outliers”) is compared to the number of post-dose data that exceed the limit for each of the time periods. A repeated measures test for significant difference between pre-dose and post-dose outliers is conducted to evaluate an effect. In the case of small but consistent effects, the repeated measures test detects significant differences better than individual tests. […] To minimize the chance of false negatives, β, conventionally known as “Type II errors,” no multiple comparison adjustments are made for the individual tests.
Once the outliers are identified, they are compared to the pre-dose curve to estimate the magnitude of prolongation, ΔQT, above the QT-RR curve fit to the pre-dose data. The magnitude of prolongation is referenced to the curve rather than the upper 95% confidence bound because the curve is the best estimate of the QT-RR functional relationship, regardless of the number of data points.

humans = settings: cited from earlier work

CC(C)(C)c1ccc(C(O)CCCN2CCC(C(O)(c3ccccc3)c3ccccc3)CC2)cc1 (stereo not shown) [terfenadine]
number and magnitude of the outliers compared to the pre-dose and vehicle response (conscious mongrel dog): significant increase | QTc, clinically (humans; human, in vivo): clear, dose-dependent increase in QTC

CC(C)NCC(O)c1ccc(NS(C)(=O)=O)cc1 (stereo not shown) [sotalol]
QT prolongation and sudden death in humans (humans): caused QT prolongation and sudden death

COc1cc(N)c(Cl)cc1C(=O)NC1CCN(CCCOc2ccc(F)cc2)CC1OC (stereo not shown) [cisapride]
Treatment crosses pre-dose curve (conscious mongrel dog): Yes:RR = | number and magnitude of the outliers compared to the pre-dose and vehicle response (conscious mongrel dog): significant increase | post-dose curve versus pre-dose curve (conscious mongrel dog): not significantly greater than the pre-dose curve | #outliers/total (QT exceeding 95% confidence bounds of pre-dose curve) (conscious mongrel dog; mongrel): 130/324 | RR at crossing point of post-dose and pre-dose curves (conscious mongrel dog; mongrel): 1094 ms | mean ΔQT (of QT exceeding 95% confidence bounds of pre-dose curve) (conscious mongrel dog; mongrel): 12 | ΔQT range (of QT exceeding 95% confidence bounds of pre-dose curve) (conscious mongrel dog; mongrel): 5 - 47 | QTRR1000 (least squares estimate of QT at RR 1000 ms, mean ± SEM from curve fit) (conscious mongrel dog; mongrel, iv): 240 ± 18 | QTc, clinically (humans; clinical): clear, dose-dependent increase in QTC | QT prolongation and sudden death in humans (humans): caused QT prolongation and sudden death
